{
  "source": "patent US6291676A",
  "about": "“Water-soluble derivatives of camptothecin/homocamptothecin” (priority 2000, dated 2001)",
  "key": {"[1]": {"assay": "HPLC lactone stability in presence of DMPC SUV", "format": "physicochemical", "conditions": "for less lactone compared to the prior art monoamine (7AEC): DMPC", "method": "To further study the differential interactions of CT-17 versus 7AEC with liposomal particles, high performance liquid chromatographic (HPLC) methods were employed to study drug stabilities in the absence and presence of membranes. In these experiments, small unilamellar vesicles (SUV) composed of dimyristoyl phosphatidylcholine (DMPC) were prepared by weighing out dry lipid powder (Avanti Polar Lipids) in a glass tube with screw cap top. The lipid was suspended in phosphate buffered saline, pH 7.4, at the concentration of 20 mg/ml and vortexed vigorously for 1 minute. The suspension was sonicated in a bath-type sonicator (Laboratory Supplies Co., Hicksville, N.Y.) for 2-4 hours until optically clear solution is obtained. […] A decrease in pH from 7.4 to 7.2 was observed. The pH of the SUV preparation was adjusted to 7.4 by the addition of 0.1 M potassium hydroxide. The sample was resonicated after pH adjustment until optically clear. Small unilamellar vesicles composed of dimyristoyl phosphatidylglycerol (DMPG) were also prepared by weighing out dry powder of the lipid (Avanti Polar Lipids) in a glass tube with screw-cap top and prepared as in the case of DMPC. The pH of the preparation decreased from 7.4 to 6.9 and was adjusted to 7.4 by the addition of 0.1 M KOH. The preparation was resonicated for 30 minutes until optically clear.\nStock solutions of 7-(1-Aminoethyl)camptothecin, a monoamine compound known in the prior art, and CT-17 as prepared in Example 18 were prepared by weighing out dry powder and dissolving in dimethylsulfoxide (DMSO) at a concentration of 2 mM. The SUV preparations from above were incubated at 37° C. in a water bath for 30 minutes. The two camptothecin drugs were added to the SUV preparations such that the final drug concentrations were 1 μM. The samples were incubated at 37° C. and aliquots were withdrawn at 1 hour and 3 hours and added to cold methanol (-20° C.) and immediately analyzed by reversed-phase HPLC using the conditions as follows. Analysis was performed using either Waters Alliance 2690 LC system equipped with temperature controlled autosampler or Waters LC system equipped with temperature controlled 717 plus Autosampler and 501 pumps. The detection was using either Waters 470 or 474 fluorescence detectors. Solvent A was 2% triethylammonium acetate, pH 5.5 and Solvent B was acetonitrile. The column used was Waters Symmetry C18, 5 μm (3.9×150 mm). The autosampler temperature was maintained at 4-5° C. The conditions used for analysis of 7-(1-Aminoethyl)camptothecin: Isocratic elution using 15% of solvent A and 85% of solvent B; detection using λcx =370 and λcm =440. […] The HPLC data was collected and analyzed using Waters Millenium chromatography manager."}, "[2]": {"assay": "Fluorescence anisotropy titration: association with electroneutral DMPC vesicles", "format": "physicochemical", "method": "Vesicle Preparation. Small unilamellar vesicle (SUV) suspensions were prepared the day of an experiment by the method of Burke et al. (T. G. Burke, A. K. Mishra, M. C. Wani, and M. E. Wall, Lipid Bilayer Partitioning and Stability of Camptothecin Drugs, Biochem., 32(20), 5352 (1993)). Briefly, stock lipid suspensions containing 200 mg/mL lipid in phosphate buffered saline (PBS, pH 7.4) were prepared by Vortex mixing for 5-10 min above the TM of the lipid. The lipid dispersions were then sonicated using a bath-type sonicator (Laboratory Supplies Co., Hicksville, N.Y.) for 3-4 h until they became optically clear. […] Each type of vesicle suspension was annealed for 30 min at 37° C. and then used in an experiment.\nFluorescence Instrumentation. Steady-state fluorescence measurements were obtained on a SLM Model 9850 spectrofluorometer with a thermostated cuvette compartment. This instrument was interfaced with an IBM PS/2 model 55 SX computer. Excitation and emission spectra were recorded with an excitation resolution of 8 nm and an emission resolution of 4 nm. In all cases spectra were corrected for background fluorescence and scatter from unlabeled lipids or from solvents by subtraction of the spectrum of a blank. Steady-state fluorescence intensity measurements were made in the absence of polarizers. Steady-state anisotropy (a) measurements were determined with the instrument in the \"T-format\" for simultaneous measurement of two polarized intensities. […] The anisotropy was calculated from a =(IVV -GIVH)/(IVV +2GIVH), where G=IHV /IHH and the subscripts refer to vertical and horizontal orientations of the excitation and emission polarizers, respectively.\nAnisotropy measurements for camptothecins were conducted using exciting light in the range of 370 nm to 400 nm and long pass filters on each emission channel in order to isolate the drug's fluorescence signal from background scatter and/or residual fluorescence. […] The combination of exciting light and emission filters allowed us to adequately separate fluorescence from background signal. […]"}},
  "data": [
    {"smiles": "CC[C@@]1(O)C(=O)OCc2c1cc1n(c2=O)Cc2c-1nc1ccccc1c2CNN1CCN(C)CC1", "note": "[CT-17, 7-[N-(4-methyl-1-piperazino)aminomethyl]-(20S)-camptothecin]", "values": [
      {"measurement": "remaining at 1 h, 1 µM", "setting": "[1]; DMPC SUV, PBS pH 7.4, 37° C, 1 hr, 1 μM drug, read-out: Percentage of Lactone, DMPC, 1 Hr", "result": "34 ± 3", "unit": "%"},
      {"measurement": "remaining at 3 h, 1 µM", "setting": "[1]; DMPC SUV, PBS pH 7.4, 37° C, 3 hr, 1 μM drug, read-out: Percentage of Lactone, DMPC, 3 Hr", "result": "19 ± 3", "unit": "%"},
      {"measurement": "less lactone compared to the prior art monoamine (7AEC)", "setting": "[1]; 1 hr", "result": 20, "unit": "%"},
      {"measurement": "less lactone compared to the prior art monoamine (7AEC)", "setting": "[1]; 3 hr", "result": 17, "unit": "%"},
      {"measurement": "Overall association constant KDMPC", "setting": "[2]; PBS buffer, pH 7.4, physiological temperature, DMPC", "result": 30, "unit": "M⁻¹"},
      {"measurement": "reduction in membrane binding relative to 7AEC (DMPC)", "setting": "[2]; electroneutral DMPC membranes", "result": "greater than 2 fold"}
    ]}
  ]
}
